conditions: not given

Compared with `COP(=O)(OC)OC(Br)C(Cl)(Cl)Br` (centres undefined), `COC(=O)c1cc(Cl)cc(N)c1Cl` is higher in log10 Koc (L/kg): 2.26 for the first, 2.74 for the second.

First: COP(=O)(OC)OC(Br)C(Cl)(Cl)Br (centres undefined)
Second: Cc1ccc(N(SC(F)(Cl)Cl)S(=O)(=O)N(C)C)cc1
The log10 vapour pressure (mmHg) of the first is higher: -3.7 for the first, -5.82 for the second.

`CCc1ccc(Br)cc1` and `CCc1ccc(C)cc1C` are within 0.2 log units of each other in log10 vapour pressure (mmHg): -0.155 for the first, -0.0685 for the second.

Going from `CC(C)CCC(C)(C)C` to `CC(C)CO`, the log10 vapour pressure (mmHg) falls from 1.22 to 1.02.

Compared with `CCN(CC)CCO`, `CCC(C)C(C)=O` (centres undefined) is higher in log10 vapour pressure (mmHg): 0.146 for the first, 1.06 for the second.

First: c1ccc2cnccc2c1
Second: CCCC[P+](CCCC)(CCCC)Cc1ccc(Cl)cc1Cl.[Cl-]
The log10 vapour pressure (mmHg) of the first is higher: -1.16 for the first, -6.15 for the second.

First: ClC1=C(Cl)C2(Cl)C3C(Cl)OC(Cl)C3C1(Cl)C2(Cl)Cl (centres undefined)
Second: ClC=CCl
The log10 vapour pressure (mmHg) of the first is lower: -5.53 for the first, 2.3 for the second.

First: COP(=O)(OC)OC(Br)C(Cl)(Cl)Br (centres undefined)
Second: Cc1ccc(N(SC(F)(Cl)Cl)S(=O)(=O)N(C)C)cc1
The melting point of the first is lower: 27 °C for the first, 96 °C for the second.

Compared with `CCc1cc(CC)cc(CC)c1`, `CCc1ccc(C)cc1C` is higher in melting point: -66.5 °C for the first, -62.9 °C for the second.

First: Fc1c(F)c(F)c2c(F)c(F)c(F)c(F)c2c1F
Second: Fc1c(F)c(F)c(S)c(F)c1F
The melting point of the first is higher: 87.5 °C for the first, -24 °C for the second.

Going from `CCc1ccc(Br)cc1` to `O=C(O)Cc1ccc(F)cc1`, the melting point rises from -43.5 °C to 86 °C.

Going from `CC(C)CCC(C)(C)C` to `CCC(C)(O)CCCC(C)C` (centres undefined), the melting point rises from -106 °C to 31.5 °C.

Going from `Cc1c(N)cc([N+](=O)[O-])cc1C(N)=O` to `O=C(O)c1cc([N+](=O)[O-])cc([N+](=O)[O-])c1O`, the melting point falls from 199 °C to 170 °C.

Compared with `CCCCCCCOC(=O)CCCCCC`, `CCCC[P+](CCCC)(CCCC)Cc1ccc(Cl)cc1Cl.[Cl-]` is higher in melting point: -33 °C for the first, 117 °C for the second.

First: CC(=O)N(C)C(C)=O
Second: CC(=O)O[Si](C)(C)OC(C)=O
The melting point of the first is lower: -25 °C for the first, -12.5 °C for the second.

First: O=C(O)CCC(=O)Nc1ccccc1
Second: CC(=O)OC(OC(C)=O)c1ccccc1
The melting point of the first is higher: 148 °C for the first, 46 °C for the second.

Compared with `CCC(=O)c1c(O)cc(O)cc1O`, `COc1ccc(CO)cc1O` is lower in melting point: 176 °C for the first, 136 °C for the second.

Compared with `CSCc1ccccc1`, `c1ccc2cnccc2c1` is higher in melting point: -30 °C for the first, 26.5 °C for the second.

First: COc1ccc(O)c(C=O)c1
Second: Nc1ccc(C=O)cc1
The melting point of the first is lower: 4 °C for the first, 71.5 °C for the second.

Going from `CCOC(=O)C1N=C(c2ccccc2F)c2cc(Cl)ccc2NC1=O` (centres undefined) to `Oc1ccc2c(c1)Cc1ccccc1-2`, the melting point falls from 194 °C to 168 °C.

Compared with `ClC1=C(Cl)C2(Cl)C3C(Cl)OC(Cl)C3C1(Cl)C2(Cl)Cl` (centres undefined), `ClCC(Cl)C(Cl)=C(Cl)C(Cl)CCl` (centres undefined) is lower in melting point: 121 °C for the first, 58.5 °C for the second.

First: ClC=CCl
Second: CC(C)=CC=C(C)C
The melting point of the first is lower: -57 °C for the first, 14 °C for the second.

Compared with `SCCCCS`, `CC(C)NCC(O)COc1ccc(O)cc1` (centres undefined) is higher in melting point: -53.9 °C for the first, 128 °C for the second.

Compared with `O=[N+]([O-])c1ccco1`, `Cc1cccc(C(C)C)c1O` is lower in melting point: 30 °C for the first, -14.5 °C for the second.

First: NC(c1ccccc1)c1ccccc1
Second: OB(c1ccccc1)c1ccccc1
The melting point of the first is lower: 34 °C for the first, 57.5 °C for the second.

Compared with `CC(=O)N(CC(C)C(=O)O)c1c(I)cc(I)c(N)c1I` (centres undefined), `O=c1cc(CN2CCOCC2)c2cc(O)c(O)cc2o1` is higher in melting point: 224 °C for the first, 232 °C for the second.

First: Nc1ccc(S(=O)(=O)Nc2ccnn2-c2ccccc2)cc1
Second: CN1[C@@H]2CC[C@H]1C[C@@H](OC(=O)C(O)c1ccccc1)C2 (mixture of isomers)
The melting point of the first is higher: 181 °C for the first, 99.5 °C for the second.

First: CC1=C(C)CCCC1
Second: Cc1ccc(-c2ccc(C)cc2C)c(C)c1
The melting point of the first is lower: -84.1 °C for the first, 41 °C for the second.

First: Fc1ccc(N=C=S)cc1
Second: CC(C)c1ccncc1
The melting point of the first is higher: 27 °C for the first, -54.9 °C for the second.

`Cc1ccc(OP(=O)(Oc2ccc(C)c(C)c2)Oc2ccc(C)c(C)c2)cc1C` gave a melting point of 72 °C.

Compared with `CCc1cc(CC)cc(CC)c1`, `CCc1ccc(C)cc1C` is lower in boiling point: 216 °C for the first, 188 °C for the second.

First: Fc1c(F)c(F)c2c(F)c(F)c(F)c(F)c2c1F
Second: Fc1c(F)c(F)c(S)c(F)c1F
The boiling point of the first is higher: 209 °C for the first, 143 °C for the second.

Compared with `CCCC(=O)OCc1ccco1`, `CCCCCCCOC(=O)CCCCCC` is higher in boiling point: 212 °C for the first, 277 °C for the second.

Going from `CCc1ccc(Br)cc1` to `CSCc1ccccc1`, the boiling point rises from 204 °C to 210 °C.

Compared with `CC(C)CCC(C)(C)C`, `CCC(C)(O)CCCC(C)C` (centres undefined) is higher in boiling point: 124 °C for the first, 196 °C for the second.

First: CCN(CC)CCO
Second: OCCCCl
The boiling point of the first is lower: 163 °C for the first, 165 °C for the second.

Compared with `CC(=O)N(C)C(C)=O`, `CC(=O)O[Si](C)(C)OC(C)=O` is lower in boiling point: 195 °C for the first, 165 °C for the second.

First: CCC(C)(CC)c1ccccc1
Second: CC(=O)OC(OC(C)=O)c1ccccc1
The boiling point of the first is lower: 205 °C for the first, 220 °C for the second.

Compared with `COc1ccc(O)c(C=O)c1`, `Cc1cccc(C(C)C)c1O` is lower in boiling point: 248 °C for the first, 226 °C for the second.

First: c1ccc2cnccc2c1
Second: NC(c1ccccc1)c1ccccc1
The boiling point of the first is lower: 243 °C for the first, 304 °C for the second.

First: ClC=CCl
Second: CC(O)(CCl)CCl
The boiling point of the first is lower: 55 °C for the first, 174 °C for the second.

First: SCCCCS
Second: CC(C)CCON=O
The boiling point of the first is higher: 196 °C for the first, 99.2 °C for the second.

Compared with `CC1=C(C)CCCC1`, `CC1CCC2CC1C2(C)C` (centres undefined) is higher in boiling point: 138 °C for the first, 160 °C for the second.

First: CCC(C)C(C)=O (centres undefined)
Second: CC(C)=CC=C(C)C
The boiling point of the first is lower: 118 °C for the first, 134 °C for the second.

Going from `Fc1ccc(N=C=S)cc1` to `Cc1ccc(-c2ccc(C)cc2C)c(C)c1`, the boiling point rises from 228 °C to 287 °C.

Compared with `CC(C)c1ccncc1`, `FC(F)(Br)C(F)(F)C(F)(F)C(F)(F)C(F)(F)C(F)(F)C(F)(F)C(F)(F)Br` is higher in boiling point: 178 °C for the first, 180 °C for the second.

In the case of `C=CC(=O)NCOCCCC`, the ready biodegradability is reported as “readily biodegradable”.
In the case of `CCN(CC)CCO`, the ready biodegradability is reported as “not readily biodegradable”.
With `ClC=CCl` the ready biodegradability was “not readily biodegradable”.
With `CC(C)CO` the ready biodegradability was “readily biodegradable”.

Compared with `CCc1ccc(C)cc1C`, `CC(C)CCC(C)(C)C` is higher in log10 biodegradation half-life (days): 0.602 for the first, 1.26 for the second.

First: ClC=CCl
Second: CC(C)CO
The log10 Henry constant (atm·m³/mol) of the first is higher: -2.39 for the first, -5.01 for the second.

In the case of `CC(C)CO`, the log10 Koa is reported as 3.93.

same assay, conditions: fish

First: Brc1ccc(Oc2c(Br)cc(Br)cc2Br)c(Br)c1
Second: Brc1cc(Br)c(-c2ccccc2)c(Br)c1
The log10 BCF of the first is higher: 6.36 for the first, 3.87 for the second.

`CCOP(=S)(OCC)Oc1ccc(=O)n(-c2ccccc2)n1` and `COP(=S)(OC)Oc1ccc(S(C)(=O)=O)c(C)c1` are within 0.2 log units of each other in log10 BCF: 0.67 for the first, 0.51 for the second.

`CC(C)=CC=C(C)C` gave a log10 BCF of 2.32.

Going from `CCOP(=S)(OCC)Oc1ccc(=O)n(-c2ccccc2)n1` to `COP(=S)(OC)Oc1ccc(S(C)(=O)=O)c(C)c1`, the log10 biotransformation half-life (days) rises from -0.7 to -0.03.

Compared with `Brc1cc(Br)c(-c2ccccc2)c(Br)c1`, `CC(C)=CC=C(C)C` is lower in log10 biotransformation half-life (days): 1.25 for the first, 0.49 for the second.

From the OPERA property sets (Mansouri et al. 2018)
